Assay results taken from US11566007B2, “Ras inhibitors” (Revolution Medicines, Inc., priority 2019, dated 2023).

Assays:
KRAS Q61H = KRAS Q61H (Homo sapiens (Human), UniProt P01116+P62937, Q61H); experiment: Ras-Raf (BRAF RBD) disruption / FRET / MOA assay, KRAS Q61H; type: biochemical; settings: Ras-Raf disruption/FRET/MOA assay; class symbols; read-out: KRAS Q61H FRET data IC50
How it was run: (§1)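 TR-FRET disruption of nucleotide-loaded Ras binding to BRAF RBD via compound-driven ternary complex with cyclophilin A. Compound as 10-point 3-fold series from 30 μM final, 3 h at 25° C, then anti-His Eu-W1024 (10 nM) and anti-GST allophycocyanin (50 nM) for 1.5 h. IC50 from decreased FRET ratio versus DMSO.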

NRAS WT = NRAS WT (Homo sapiens (Human), UniProt P01111+P62937); experiment: Ras-Raf (BRAF RBD) disruption / FRET / MOA assay, NRAS WT; type: biochemical; settings: read-out: IC50* NRAS WT FRET data
How it was run: as §1

NCI-H358 (K-Ras G12C) = experiment: CellTiter-Glo cell viability assay, NCI-H358; type: cell-based, human; settings: Homo sapiens, NCI-H358, 120 h, NCI-H358, 5-day treatment; class symbols; read-out: Additional H358 Cell Viability assay data (K-Ras G12C, IC50)
How it was run: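 Viability measured by CellTiter-Glo luminescence on day 5 following direct addition of compound to plated cells. Values expressed as percent of mean DMSO signal; curves fitted with a four-parameter logistic model.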

NRAS Q61K = NRAS Q61K (Homo sapiens (Human), UniProt P01111+P62937, Q61K); experiment: Ras-Raf (BRAF RBD) disruption / FRET / MOA assay, NRAS Q61K; type: biochemical; settings: NRAS Q61K; Ras-Raf disruption/FRET/MOA assay; read-out: IC50* NRAS Q61K FRET data
How it was run: as §1

NRAS G12C = NRAS G12C (Homo sapiens (Human), UniProt P01111+P62937, G12C); experiment: Ras-Raf (BRAF RBD) disruption / FRET / MOA assay, NRAS G12C; type: biochemical; settings: read-out: IC50* NRAS G12C FRET data
How it was run: (§2)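 Ras:RAF disruption was scored as a fall in TR-FRET ratio relative to DMSO. Compound ranged in 3-fold steps over 10 points from 30 μM final; incubation ran 3 h at 25° C, detection antibodies a further 1.5 h. Reported as IC50.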

KRAS G12S = KRAS G12S (Homo sapiens (Human), UniProt P01116+P62937, G12S); experiment: Ras-Raf (BRAF RBD) disruption / FRET / MOA assay, KRAS G12S; type: biochemical; settings: Ras-Raf disruption/FRET/MOA assay; class symbols; read-out: KRAS G12S FRET data IC50
How it was run: as §2

KRAS WT = KRAS WT (Homo sapiens (Human), UniProt P01116+P62937); experiment: Ras-Raf (BRAF RBD) disruption / FRET / MOA assay, KRAS WT; type: biochemical; settings: read-out: IC50* KRAS WT FRET data
How it was run: as §2

NRAS Q61K, sequence (P01111 whole entry Q61K): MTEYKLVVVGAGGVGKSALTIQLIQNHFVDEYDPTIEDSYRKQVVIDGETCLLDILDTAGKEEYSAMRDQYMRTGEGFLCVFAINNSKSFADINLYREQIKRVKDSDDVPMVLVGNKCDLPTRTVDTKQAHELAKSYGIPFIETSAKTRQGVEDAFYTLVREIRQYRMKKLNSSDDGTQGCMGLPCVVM
NRAS Q61K, sequence (P62937 whole entry): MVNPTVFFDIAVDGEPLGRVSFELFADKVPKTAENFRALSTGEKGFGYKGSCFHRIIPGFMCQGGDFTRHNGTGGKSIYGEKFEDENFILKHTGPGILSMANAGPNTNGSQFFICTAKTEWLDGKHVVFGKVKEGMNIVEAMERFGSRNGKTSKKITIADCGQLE
NRAS WT, sequence (P01111 whole entry): as the sequence (P01111 whole entry Q61K) above, with K61Q counted along it
NRAS WT, sequence (P62937 whole entry): as the sequence (P62937 whole entry) above
KRAS Q61H, sequence (P01116-2 other isoform, or with tags, fused parts or gaps Q61H): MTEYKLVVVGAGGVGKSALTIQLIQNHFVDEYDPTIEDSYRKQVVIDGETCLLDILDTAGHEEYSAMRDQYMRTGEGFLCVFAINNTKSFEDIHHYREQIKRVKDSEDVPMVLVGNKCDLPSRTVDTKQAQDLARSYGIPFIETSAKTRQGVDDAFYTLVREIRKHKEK
KRAS Q61H, sequence (P62937 whole entry): as the sequence (P62937 whole entry) above
KRAS WT, sequence (P01116-2 other isoform, or with tags, fused parts or gaps): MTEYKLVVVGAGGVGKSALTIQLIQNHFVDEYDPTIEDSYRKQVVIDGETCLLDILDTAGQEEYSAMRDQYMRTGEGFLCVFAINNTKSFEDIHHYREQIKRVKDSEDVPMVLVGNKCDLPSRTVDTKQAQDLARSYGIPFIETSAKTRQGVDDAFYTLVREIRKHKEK
KRAS WT, sequence (P62937 whole entry): as the sequence (P62937 whole entry) above
NRAS G12C, sequence (P01111 whole entry G12C): as the sequence (P01111 whole entry Q61K) above, with G12C, K61Q counted along it
NRAS G12C, sequence (P62937 whole entry): as the sequence (P62937 whole entry) above
KRAS G12S, sequence (P01116-2 other isoform, or with tags, fused parts or gaps G12S): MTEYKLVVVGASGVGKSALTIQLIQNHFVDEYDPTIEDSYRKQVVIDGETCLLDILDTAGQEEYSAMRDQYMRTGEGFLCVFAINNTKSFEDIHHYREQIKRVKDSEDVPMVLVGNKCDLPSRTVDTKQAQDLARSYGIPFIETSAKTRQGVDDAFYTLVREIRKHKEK
KRAS G12S, sequence (P62937 whole entry): as the sequence (P62937 whole entry) above

SMILES	IC50 (KRAS Q61H) [nM]	IC50 (NRAS WT) [nM]	IC50 (NCI-H358 (K-Ras G12C)) [nM]	IC50 (NRAS Q61K) [nM]	IC50 (NRAS G12C) [nM]	IC50 (KRAS G12S) [nM]	IC50 (KRAS WT) [nM]
C=CC(=O)N(C)[C@H]1CN(C(=O)N(C)[C@H](C(=O)N[C@H]2Cc3nc(cs3)-c3ccc4c(c3)c(c(-c3cccnc3[C@H](C)OC)n4CC)CC(C)(C)COC(=O)[C@@H]3CCCN(N3)C2=O)C(C)C)C[C@H]1F (atropisomer, axis not shown) [Example A631]	10 to 100	100 to 1000	< 10	10 to 100	10 to 100	100 to 1000	100 to 1000
C=CC(=O)N1CC[C@H](C(=O)N(C)[C@@H](CC(F)(F)F)C(=O)N[C@H]2Cc3cccc(c3)-c3ccc4c(c3)c(c(-c3cccnc3[C@H](C)OC)n4CC)CC(C)(C)COC(=O)[C@@H]3CCCN(N3)C2=O)C1 (atropisomer, axis not shown) [Example A639]	1000 to 10000	1000 to 10000	100 to 1000	1000 to 10000	100 to 1000	1000 to 10000	1000 to 10000
CCn1c(-c2cccnc2[C@H](C)OC)c2c3cc(ccc31)N1CCO[C@@H](C[C@H](NC(=O)[C@@H](COC3CCN(C(=O)C#CC(C)(C)N(C)C)CC3)C(C)C)C(=O)N3CCC[C@H](N3)C(=O)OCC(C)(C)C2)C1 (atropisomer, axis not shown) [Example A643, (2R)-2-(((1-(4-(dimethylamino)-4-methylpent-2-ynoyl)piperidin-4-yl)oxy)methyl)-N-((2^2S,6^3S,4S)-1^1-ethyl-1^2-(2-((S)-1-methoxyethyl)pyridin-3-yl)-10,10-dimethyl-5,7-dioxo-6^1,6^2,6^3,6^4,6^5,6^6-hexahydro-1^1H-8-oxa-2(4,2)-morpholina-1(5,3)-indola-6(1,3)-pyridazinacycloundecaphane-4-yl)-3-methylbutanamide]	> 10000	> 10000	< 10	> 10000	10 to 100	> 10000	> 10000
CCn1c(-c2cccnc2[C@H](C)OC)c2c3cc(ccc31)-c1cccc(c1)C[C@H](NC(=O)[C@@H](COC1CN(C(=O)C#C[C@H]3COCCN3C)C1)C(C)C)C(=O)N1CCC[C@H](N1)C(=O)OCC(C)(C)C2 (atropisomer, axis not shown) [Example A644]	> 10000	> 10000	< 10	> 10000	10 to 100	> 10000	> 10000
CCn1c(-c2cccnc2[C@H](C)OC)c2c3cc(ccc31)-c1cccc(c1)C[C@H](NC(=O)[C@@H](COC1CN(C(=O)C#C[C@@H]3OCCCN3C)C1)C(C)C)C(=O)N1CCC[C@H](N1)C(=O)OCC(C)(C)C2 (atropisomer, axis not shown) [Example A648]	> 10000	1000 to 10000	10 to 100	> 10000	100 to 1000	> 10000	1000 to 10000
CCn1c(-c2cccnc2[C@H](C)OC)c2c3cc(ccc31)-c1cnc(o1)C[C@H](NC(=O)[C@@H](COC1CN(C(=O)C#CC(C)(C)N(C)C)C1)C(C)C)C(=O)N1CCC[C@H](N1)C(=O)OCC(C)(C)C2 (atropisomer, axis not shown) [Example A649]	> 10000	> 10000	10 to 100	> 10000	10 to 100	> 10000	> 10000
CCn1c(-c2cccnc2[C@H](C)OC)c2c3cc(ccc31)-c1csc(n1)C[C@H](NC(=O)[C@H](C(C)C)N(C)C(=O)N1CCC3(CC1)CN(C(=O)/C=C/CN(C)C)C3)C(=O)N1CCC[C@H](N1)C(=O)OCC(C)(C)C2 (atropisomer, axis not shown) [Example A650]	10 to 100	100 to 1000	10 to 100	10 to 100	10 to 100	100 to 1000	100 to 1000
CCn1c(-c2cccnc2[C@H](C)OC)c2c3cc(ccc31)-c1csc(n1)C[C@H](NC(=O)[C@H](C(C)C)N(C)C(=O)N1CCC13CN(C(=O)C#CC(C)(C)N(C)C)C3)C(=O)N1CCC[C@H](N1)C(=O)OCC(C)(C)C2 (atropisomer, axis not shown) [Example A656]	10 to 100	100 to 1000	10 to 100	100 to 1000	100 to 1000	100 to 1000	100 to 1000
CO[C@@H](C)c1ncccc1-c1c2c3cc(ccc3n1CC(F)(F)F)-c1csc(n1)C[C@H](NC(=O)[C@H](C(C)C)N(C)C(=O)N1CCN(C(=O)/C=C/CN(C)C)C3(CC3)C1)C(=O)N1CCC[C@H](N1)C(=O)OCC(C)(C)C2 (atropisomer, axis not shown) [Example A664]	10 to 100	10 to 100	10 to 100	10 to 100	10 to 100	10 to 100	10 to 100
C=CC(=O)N1CC(N2CCN(C(=O)N(C)[C@H](C(=O)N[C@H]3Cc4nc(cs4)-c4ccc5c(c4)c(c(-c4cccnc4[C@H](C)OC)n5CC)CC(C)(C)COC(=O)[C@@H]4CCCN(N4)C3=O)C(C)C)CC2)C1 (atropisomer, axis not shown) [Example A668]	10 to 100	100 to 1000	10 to 100	10 to 100	10 to 100	100 to 1000	100 to 1000
CO[C@@H](C)c1ncccc1-c1c2c3cc(ccc3n1CC(F)(F)F)-c1nc(co1)C[C@H](NC(=O)[C@@H](COC1CN(C(=O)C#CC(C)(C)N(C)C)C1)C(C)C)C(=O)N1CCC[C@H](N1)C(=O)OCC(C)(C)C2 (atropisomer, axis not shown) [Example A674]	1000 to 10000	> 10000	< 10	> 10000	10 to 100	> 10000	> 10000
C=CC(=O)N1CC[C@@]2(COCCN2C(=O)N(C)[C@H](C(=O)N[C@H]2Cc3nc(cs3)-c3ccc4c(c3)c(c(-c3cccnc3[C@H](C)OC)n4CC)CC(C)(C)COC(=O)[C@@H]3CCCN(N3)C2=O)C(C)C)C1 (atropisomer, axis not shown) [Example A677]	100 to 1000	100 to 1000	< 10	100 to 1000	100 to 1000	100 to 1000	100 to 1000
C=CC(=O)N1CCC2(CC1)CCN2C(=O)N(C)[C@H](C(=O)N[C@H]1Cc2nc(cs2)-c2ccc3c(c2)c(c(-c2cccnc2[C@H](C)OC)n3CC)CC(C)(C)COC(=O)[C@@H]2CCCN(N2)C1=O)C(C)C (atropisomer, axis not shown) [Example A678]	10 to 100	100 to 1000	10 to 100	10 to 100	10 to 100	100 to 1000	100 to 1000
CCn1c(-c2cccnc2[C@H](C)OC)c2c3cc(ccc31)-c1csc(n1)C[C@H](NC(=O)[C@H](C(C)C)N(C)C(=O)N1CCC3(CC1)CN(C(=O)/C=C/C(F)F)C3)C(=O)N1CCC[C@H](N1)C(=O)OCC(C)(C)C2 (atropisomer, axis not shown) [Example A683]	10 to 100	100 to 1000	10 to 100	10 to 100	10 to 100	100 to 1000	100 to 1000
C=CC(=O)N1CC[C@H](C(=O)N(C)[C@H](C(=O)N[C@H]2Cc3cccc(c3)-c3ccc4c(c3)c(c(-c3cccnc3[C@H](C)OC)n4CC)CC(C)(C)COC(=O)[C@@H]3CCCN(N3)C2=O)C(C)(C)F)C1 (atropisomer, axis not shown) [Example A693]	1000 to 10000	1000 to 10000	100 to 1000	1000 to 10000	100 to 1000	1000 to 10000	1000 to 10000
